row,melting point [°C],Structure (SMILES)
1,195.4,Cl.Cn1c(C(=O)N2CCN(Cc3ccc(OCC(F)(F)F)cc3)CC2)cc2ccc(Oc3ccc(NC(=O)c4ccc(C(F)(F)F)nc4)cn3)cc21
2,259 to 263.2,Cl.Cn1c(C(=O)N2CCN(Cc3ccc(OCC(F)(F)F)cc3)CC2)cc2ccc(Oc3ccc(NC(=O)c4ccc(C(F)(F)F)c(F)c4)cn3)cc21
3,249.8 to 251,CC(C)Oc1ccc(CN2CCN(C(=O)c3cc4ccc(Oc5ncc(NC(=O)c6ccc(C(F)(F)F)cc6)cn5)cc4n3C)CC2)cc1.Cl
4,247.7 to 249.8,Cl.Cn1c(C(=O)N2CCN(Cc3ccc(OC(F)F)cc3)CC2)cc2ccc(Oc3ncc(NC(=O)c4ccc(C(F)(F)F)cc4)cn3)cc21
5,256.2 to 256.5,Cl.Cn1c(C(=O)N2CCN(Cc3ccc(OC(F)F)cc3)CC2)cc2ccc(Oc3ccc(NC(=O)c4ccc(OC(F)(F)F)cc4)cn3)cc21
6,182.9,Cc1cc(C(=O)Nc2ccc(Oc3ccc4cc(C(=O)N5CCN(Cc6ccc(OCC(F)(F)F)cc6)CC5)n(C)c4c3)nc2)ccc1Cl.Cl
7,217.4 to 218.3,Cc1cc(C(F)(F)F)ccc1C(=O)Nc1ccc(Oc2ccc3cc(C(=O)N4CCN(Cc5ccc(OCC(F)(F)F)cc5)CC4)n(C)c3c2)nc1.Cl
8,197.7 to 199.3,Cc1cc(C(F)(F)F)ccc1C(=O)Nc1ccc(Oc2ccc3cc(C(=O)N4CCN(Cc5ccc(OC(C)C)cc5)CC4)n(C)c3c2)nc1.Cl
9,207.9 to 211.5,Cc1cc(C(F)(F)F)ccc1C(=O)Nc1ccc(Oc2ccc3cc(C(=O)N4CCN(Cc5ccc6c(c5)OC(F)(F)O6)CC4)n(C)c3c2)nc1.Cl
10,204.9 to 205.7,Cc1cc(C(F)(F)F)ccc1C(=O)Nc1ccc(Oc2ccc3cc(C(=O)N4CCN(Cc5ccc(OC(F)F)cc5)CC4)n(C)c3c2)nc1.Cl
11,228.7 to 230.4,CN(C(=O)c1ccc(C(F)(F)F)cc1F)c1ccc(Oc2ccc3cc(C(=O)N4CCN(Cc5ccc(OC(F)F)cc5)CC4)n(C)c3c2)nc1.Cl
12,264 to 266.3,CCCOc1ccc(CN2CCN(C(=O)c3cc4ccc(Oc5ccc(NC(=O)c6ccc(C(F)(F)F)cc6F)cn5)cc4n3C)CC2)cc1.Cl
13,267.6 to 268.2,CC(C)Oc1ccc(CN2CCN(C(=O)c3cc4ccc(Oc5ccc(NC(=O)c6ccc(C(F)(F)F)cc6F)cn5)cc4n3C)CC2)cc1.Cl
14,265.3 to 265.8,Cl.Cn1c(C(=O)N2CCN(Cc3ccc(OC(F)F)cc3)CC2)cc2ccc(Oc3ccc(NC(=O)c4ccc(C(F)(F)F)cc4F)cn3)cc21
15,267.3 to 267.7,Cl.Cn1c(C(=O)N2CCN(Cc3ccc(OC(CF)CF)cc3)CC2)cc2ccc(Oc3ccc(NC(=O)c4ccc(C(F)(F)F)cc4F)cn3)cc21

# Second part, the compound before the results:
row,Structure (SMILES),melting point [°C]
1,CN(C(=O)c1ccc(C(F)(F)F)cc1F)c1ccc(Oc2ccc3cc(C(=O)N4CCN(Cc5ccc(OCC(F)(F)F)cc5)CC4)n(C)c3c2)nc1.Cl,234.5 to 235.8
2,Cl.Cn1c(C(=O)N2CCN(Cc3ccc(OCC(F)(F)F)cc3)CC2)cc2ccc(Oc3ncc(NC(=O)c4ccc(C(F)(F)F)cc4)cn3)cc21,250.8 to 254.2
3,Cl.Cn1c(C(=O)N2CCN(Cc3ccc(OCC(F)F)cc3)CC2)cc2ccc(Oc3ncc(NC(=O)c4ccc(C(F)(F)F)cc4)cn3)cc21,251.4 to 253.5
4,Cc1ccc(C(=O)N(C)c2ccc(Oc3ccc4cc(C(=O)N5CCN(Cc6ccc(OCC(F)F)cc6)CC5)n(C)c4c3)nc2)cc1.Cl,207.8 to 209.3
5,Cc1ccc(C(=O)N(C)c2ccc(Oc3ccc4cc(C(=O)N5CCN(Cc6ccc(OC(C)C)cc6)CC5)n(C)c4c3)nc2)cc1.Cl,230.1 to 232
6,CCCOc1ccc(CN2CCN(C(=O)c3cc4ccc(Oc5ccc(N(C)C(=O)c6ccc(C)cc6)cn5)cc4n3C)CC2)cc1.Cl,231.2 to 231.8
7,CC(C)N(c1ccc(Oc2ccc3cc(C(=O)N4CCN(Cc5ccc(OCC(F)(F)F)cc5)CC4)n(C)c3c2)nc1)S(=O)(=O)c1ccc(Cl)c(Cl)c1.Cl,232.8 to 235.6
8,CCCOc1ccc(CN2CCN(C(=O)c3cc4ccc(Oc5ccc(N(C)C(=O)c6ccc(OC(F)F)cc6)cn5)cc4n3C)CC2)cc1.Cl,226.9 to 229
9,CC(C)Oc1ccc(CN2CCN(C(=O)c3cc4ccc(Oc5ccc(N(C)C(=O)c6ccc(OC(F)F)cc6)cn5)cc4n3C)CC2)cc1.Cl,229.7 to 230.4
10,CN(c1ccc(Oc2ccc3cc(C(=O)N4CCN(Cc5ccc(OCC(F)(F)F)cc5)CC4)n(C)c3c2)nc1)S(C)(=O)=O.Cl,252.7 to 253.6
11,CCCCS(=O)(=O)N(C)c1ccc(Oc2ccc3cc(C(=O)N4CCN(Cc5ccc(OCC(F)(F)F)cc5)CC4)n(C)c3c2)nc1.Cl,253.6 to 254.4
12,CC(C)S(=O)(=O)N(C)c1ccc(Oc2ccc3cc(C(=O)N4CCN(Cc5ccc(OCC(F)(F)F)cc5)CC4)n(C)c3c2)nc1.Cl,256.5 to 259.8
13,CN(c1ccc(Oc2ccc3cc(C(=O)N4CCN(Cc5ccc(OCC(F)(F)F)cc5)CC4)n(C)c3c2)nc1)S(=O)(=O)CC(F)(F)F.Cl,243.4 to 244.4
14,CN(c1ccc(Oc2ccc3cc(C(=O)N4CCN(Cc5ccc(OCC(F)(F)F)cc5)CC4)[nH]c3c2)nc1)S(=O)(=O)c1ccc(Cl)c(Cl)c1.Cl,225.2 to 229.3
15,CC(C)CN1CCN(C(=O)c2cc3ccc(Oc4ccc(N(C)C(=O)c5ccc(C(F)(F)F)cc5)cn4)cc3n2C)CC1.Cl,253.1 to 254.5
16,CC(C)CN1CCN(C(=O)c2cc3ccc(Oc4ccc(NC(=O)c5ccc(C(F)(F)F)cc5)cn4)cc3n2C)CC1.Cl,270.2 to 272.2
17,CCCOc1ccc(CN2CCN(C(=O)c3cc4ccc(Oc5ccc(N(C)C(=O)c6ccc(C(F)(F)F)cc6F)cn5)cc4n3C)CC2)cc1.Cl,247.1 to 249.2
18,Cc1ccc(S(=O)(=O)N(C)c2ccc(Oc3ccc4cc(C(=O)N5CCN(Cc6ccc7c(c6)OCO7)CC5)n(C)c4c3)nc2)cc1.Cl,242 to 249
19,Cc1ccc(S(=O)(=O)N(C)c2ccc(Oc3ccc4c(c3)cc(C(=O)N3CCN(Cc5ccc(OCC(F)(F)F)cc5)CC3)n4C)nc2)cc1.Cl,239.1 to 239.8
20,CCN(C(=S)Nc1ccc(Cl)c(Cl)c1)c1ccc(Oc2ccc3c(c2)cc(C(=O)N2CCN(Cc4ccc5c(c4)OCO5)CC2)n3C)nc1.Cl,152 to 160
21,CN(C(=O)Nc1ccc(Cl)c(Cl)c1)c1ccc(Oc2ccc3c(c2)cc(C(=O)N2CCN(Cc4ccc5c(c4)OCO5)CC2)n3C)nc1.Cl,240 to 243
22,CN(c1ccc(Oc2ccc3cc(C(=O)N4CCN(Cc5ccc(OCC(F)(F)F)cc5)CC4)n(C)c3c2)nc1)S(=O)(=O)c1ccc(C(F)(F)F)cc1.Cl,256.9 to 257.7
23,Cc1ccc(S(=O)(=O)N(C)c2ccc(Oc3ccc4cc(C(=O)N5CCN(Cc6ccc(OCC(F)(F)F)cc6)CC5)n(C)c4c3)nc2)cc1.Cl,246.4 to 247.2
24,CCN(c1ccc(Oc2ccc3cc(C(=O)N4CCN(Cc5ccc(OCC(F)(F)F)cc5)CC4)n(C)c3c2)nc1)S(=O)(=O)c1ccc(Cl)c(Cl)c1.Cl,226.9 to 227.2
25,Cc1cc(C)c(S(=O)(=O)Nc2ccc(Oc3ccc4cc(C(=O)N5CCN(Cc6ccc(OCC(F)(F)F)cc6)CC5)n(C)c4c3)nc2)c(C)c1.Cl,191.3 to 192.5

# Reference: patent US8551999B2, “Heterocyclic compound and pharmaceutical composition thereof” (Otsuka Pharmaceutical Co., Ltd., priority 2007, dated 2013)
